Test results: PubChem BioAssay (NCI)
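Dose response: 5 concentrations. Exposure: 48 h. Format: 96-well plates. Endpoint: linear interpolation; highest concentration if not reached. Definition used: TGI = concentration required for complete inhibition of growth.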

Key:
Assay in all cases: inhibition of tumour cell growth, NCI panel, 48 h
RXF 393 renal = system: RXF 393 renal
MCF7 breast = system: MCF7 breast
CCRF-CEM leukemia = system: CCRF-CEM leukemia
NCI-H460 lung = system: NCI-H460 lung
OVCAR-3 ovarian = system: OVCAR-3 ovarian
SF-268 CNS = system: SF-268 CNS
SF-539 CNS = system: SF-539 CNS
UACC-62 melanoma = system: UACC-62 melanoma
SK-MEL-2 melanoma = system: SK-MEL-2 melanoma
UACC-257 melanoma = system: UACC-257 melanoma
HS 578T breast = system: HS 578T breast
M14 melanoma = system: M14 melanoma
KM12 colon = system: KM12 colon
SN12C renal = system: SN12C renal
TK-10 renal = system: TK-10 renal
HCT-116 colon = system: HCT-116 colon
786-0 renal = system: 786-0 renal
PC-3 prostate = system: PC-3 prostate
RPMI-8226 leukemia = system: RPMI-8226 leukemia

Structure (SMILES) | TGI (RXF 393 renal) [µM] | TGI (MCF7 breast) [µM] | TGI (CCRF-CEM leukemia) [µM] | TGI (NCI-H460 lung) [µM] | TGI (OVCAR-3 ovarian) [µM] | TGI (SF-268 CNS) [µM] | TGI (SF-539 CNS) [µM] | TGI (UACC-62 melanoma) [µM] | TGI (SK-MEL-2 melanoma) [µM] | TGI (UACC-257 melanoma) [µM] | TGI (HS 578T breast) [µM] | TGI (M14 melanoma) [µM] | TGI (KM12 colon) [µM] | TGI (SN12C renal) [µM] | TGI (TK-10 renal) [µM] | TGI (HCT-116 colon) [µM] | TGI (786-0 renal) [µM] | TGI (PC-3 prostate) [µM] | TGI (RPMI-8226 leukemia) [µM]
Cc1c[nH]c(C(=O)O)c1-c1cccn1-c1ccc(Cl)cc1[N+](=O)[O-] | > 100 | > 100 | > 100 | > 100 | > 100 | > 100 | > 100 | > 100 | > 100 | > 100 | > 100 | > 100 | > 100 | > 100 | > 100 | > 100 | > 100 | > 100 | 
C[C@@H]1[C@H](O)CC2=C(CC[C@@H](O)C2(C)C)[C@@]1(CO)CCc1ccoc1 | > 50 | > 50 | > 50 | > 50 | > 50 |  | > 50 | > 50 | > 50 | > 50 | > 50 | > 50 | > 50 | > 50 | > 50 | > 50 | > 50 | > 50 | 
CC(=O)OC1OC(c2ccoc2)C[C@@]12C1CCC3O[C@]3(C)[C@]1(C)[C@H](OC(C)=O)[C@H](OC(C)=O)[C@H]2C (stereo partly drawn) | > 37.5 | > 37.5 | > 37.5 | > 37.5 | > 37.5 |  | > 37.5 | > 37.5 | > 37.5 | > 37.5 | > 37.5 | > 37.5 | > 37.5 | > 37.5 | > 37.5 | > 37.5 | > 37.5 | > 37.5 | 
N#CCCN(CCC#N)c1ccc(C(N=Nc2ccc(Cl)cc2)=Nc2ccccc2)cc1 | 30.8 | 28.2 |  | 22.5 | 22.1 | 27.1 | 29.1 | 21.8 | 13.9 | 20.8 | 35 | 26.9 | 31.3 | 33.5 | 29.1 | 24.4 | 28 | 25.5 | > 100
COC(=O)[C@H](Cc1ccccc1)NC(=O)N(CCC#N)CCCCN(CCC#N)C(=O)N[C@@H](Cc1ccccc1)C(=O)OC | > 100 | > 100 |  | > 100 | > 100 | > 100 |  | > 100 | > 100 | > 100 | > 100 | > 100 | > 100 | > 100 | > 100 | > 100 | > 100 | > 100 | > 100
O=C(O)Cc1ccc(Nc2nc3ccccc3nc2C(=O)O)cc1 | > 100 | > 100 | > 100 | > 100 | > 100 | > 100 | > 100 | > 100 | > 100 | > 100 | > 100 | > 100 | > 100 | > 100 | > 100 | > 100 | > 100 | > 100 | 
C=C1CCCC(C)(C)[C@H]1C/C=C1\CCOC1=O |  | 25.4 | > 100 | 24.4 | 34.8 | 23.9 | 34.5 | > 100 | > 100 | 24.5 | 44.3 | 34 | 31.8 | 35.2 | 34.5 | 25.8 | 28.7 | 31.5 | > 100
Cc1c2n(c3ccccc13)S(=O)(=O)c1ccccc1-2 |  | > 100 | > 100 | > 100 | > 100 |  |  | > 100 |  | > 100 | 54.8 | > 100 | > 100 |  | 58.2 | > 100 | 22.7 | 61.3 | > 100
Cc1csc(NNC(N)=O)n1 | > 100 | > 100 | > 100 | > 100 | > 100 | > 100 | > 100 | > 100 | > 100 | > 100 | > 100 | > 100 | > 100 | > 100 | > 100 | > 100 | > 100 | > 100 | 
NC(=O)CN1CC(C2=C(O)CN(CC(N)=O)C2=O)=CC1=O |  | > 100 | > 100 | > 100 | > 100 | > 100 | > 100 | > 100 | > 100 | > 100 | > 100 | > 100 | > 100 | > 100 | > 100 | > 100 | > 100 | > 100 | > 100
O=c1[nH]nc(-c2ccccc2)n1/N=C/c1ccco1 | > 100 | > 100 | > 100 | > 100 | > 100 | > 100 | > 100 | > 100 | > 100 | > 100 | > 100 | > 100 | > 100 | > 100 | > 100 | > 100 | > 100 | > 100 | 
O=[N+]([O-])C1=Cc2cc(Cl)ccc2OC1c1cccc2ccccc12 (stereo not drawn) | 1.46 | 2.16 |  | 5.28 | 2.95 | 3.29 |  | 4.97 | 3.13 | 3.4 | 7.71 | 3.66 | 3.5 | 2.54 | 2.55 | 0.355 | 1.37 | 2.23 | 
CC(=O)N1c2ccccc2C2=NN(C)C(=N)SC21 (stereo not drawn) |  | > 100 | > 100 | > 100 | > 100 | > 100 | > 100 |  | > 100 | > 100 | > 100 | > 100 | > 100 | > 100 | > 100 | > 100 | > 100 | > 100 | > 100
COC(=O)C1CCC(=O)N1CN(C(C)=O)c1cc(OC)ccc1OC (stereo not drawn) | > 100 | > 100 |  | > 100 | > 100 | > 100 | > 100 | > 100 | > 100 | > 100 | > 100 | > 100 | > 100 | > 100 | > 100 | > 100 | > 100 | > 100 | > 100
Cn1c2c(c3ccccc31)CCN=C2C1CCCOC1=O (stereo not drawn) | > 100 | > 100 |  | > 100 | > 100 | > 100 | > 100 | > 100 | > 100 | > 100 | > 100 | > 100 | > 100 | > 100 | > 100 | > 100 | > 100 | > 100 | 
COC(=O)c1cc(OS(=O)(=O)C(F)(F)F)c(=O)n2c1CCCC2 | > 100 | > 100 | > 100 |  |  | > 100 | > 100 | > 100 | > 100 | > 100 | > 100 | > 100 | > 100 | > 100 | > 100 | > 100 | > 100 | > 100 | 
Cn1nc2ccc([N+](=O)[O-])cc2[n+]1[O-] | > 100 | > 100 | > 100 | > 100 | > 100 |  | > 100 | > 100 | > 100 | > 100 | > 100 | > 100 | > 100 | > 100 | > 100 | > 100 | > 100 | > 100 | 
CC(=O)NC1C(OC(C)C(=O)NC(C(=O)NC(CCC(=O)NCCCNC2c3ccccc3Nc3cccc([N+](=O)[O-])c32)C(N)=O)C(C)C)C(O)C(CO)OC1(C)OCc1ccccc1 (stereo not drawn) | 2.13 | 2.85 | 4.59 | 0.405 | 2.85 | 3.3 |  | 2.1 | 3.56 | 5.14 | 4.75 | 12.2 | 3.48 | 3.82 | 0.695 | 1.3 | 2.35 | 3.33 | 1.01
COC1=N[C@H](C(C)C)C(OC)=N[C@H]1Cc1ccc(C[C@@H]2N=C(OC)[C@@H](C(C)C)N=C2OC)s1 |  | 59.4 | 50.3 | > 100 | > 100 | > 100 | > 100 | > 100 | 49.3 | 97.1 | > 100 | > 100 | > 100 | > 100 | > 100 | > 100 | > 100 | 69.2 | 
CCOC(=O)Nc1sc2c(c1C#N)CC(C)CC2 (stereo not drawn) | 70.2 | 24.5 |  | 17.3 | > 100 | 96.6 |  | 96.4 | 7.87 | 42.8 | 65.9 | 17.4 | 36 | 99 | 98 | 25 | 40.6 | 41.8 | 34.8
CC(C)=NNc1snnc1C(N)=O | > 100 | > 100 | > 100 |  | > 100 | > 100 | > 100 | > 100 | > 100 | > 100 | > 100 | > 100 | > 100 | > 100 | > 100 | > 100 | > 100 | > 100 | > 100
N#Cc1cc2c(cc1C#N)/C(=N\c1cccc(N)n1)N=C2Nc1cccc(N)n1 |  | > 100 | > 100 | > 100 | > 100 | 49.2 | 43.2 | 41 | > 100 | > 100 | > 100 | 34.1 | > 100 | > 100 | 68.8 | 26.7 | 30.6 | > 100 | > 100
Cc1ccc(S(=O)(=O)NC(=O)Nc2cccc(S(N)(=O)=O)c2)cc1 | > 100 | > 100 |  | > 100 | > 100 | > 100 | > 100 | > 100 | > 100 |  | > 100 | > 100 | > 100 |  | > 100 | > 100 | > 100 | > 100 | > 100
Cc1cc(C)c2c(n1)S(=O)(=O)N(CCCN1CCN(c3cccc(Cl)c3)CC1)/C(=C(\O)c1ccccc1)C2=O |  | > 100 | > 100 | 52.5 | > 100 | > 100 | > 100 | > 100 | > 100 | 55.4 | > 100 | > 100 | > 100 | 93.4 | 78.5 | 92.5 | > 100 | > 100 | 
c1csc(-c2nccc3c2[nH]c2ccccc23)c1 | 36.1 | 20.8 | 51.5 | 57 | 49.4 | 56.7 | 32 | 62.4 | 41.8 | 35.7 | > 100 | 31.6 | 34.4 | 38.8 | 48.7 | 31.8 | 32.9 | 61.3 | 
COc1cc2oc(=O)cc(C)c2c(OC)c1O |  | > 100 | > 100 |  | > 100 | > 100 | > 100 | > 100 | > 100 | > 100 | 65 | > 100 | > 100 | > 100 | > 100 | > 100 | > 100 | > 100 | > 100
